The subject of data set [1] is formalin-induced pain mice. Put plainly: Formalin pain test. Format: in vivo, mouse. As for the experimental part:
The mice were placed in a transparent organic glass box (20×20×30 cm) to accommodate the environment for 10-15 min; a mirror tilted at 30 degrees was placed underneath to facilitate observation of the mouse's foot reaction. After adaptation, the mice were administered in lateral ventricle, intrathecally or intraperitoneally. 5 minutes after administration, 20 μL of a 5% formalin solution was subcutaneously injected into the toes of the right hind paw of the mice, and quickly placed back in the observation box. Timing was started, and the time when the mouse was licking, biting and shaking the injected paw during 0-5 minutes and 15-30 minutes after the injection of the formalin solution were recorded respectively.
The experimental data was expressed by MPE (maximum possible effect), MPE (%)=100×[(licking paw time in saline group−licking paw time in drug group)/licking paw time in saline group]. The relevant MPE data were expressed as mean±standard error Means±S.E.M.), the data for differences between groups treated with different drug concentrations were analyzed by one-way ANOVA (Bonferroni test in one-way ANOVA) for statistics and analysis, ***P<0.001 represents that there was a significant difference between the MPE value of the drug-treated group and that of the saline group.

For data set [2], the system named is postoperative pain in mice. Put plainly: Postoperative pain model (electronic Von Frey). The format is in vivo, mouse. The settings on record: mechanical pain threshold. The text has this: The postoperative pain in mice was detected mainly by an electronic Von Frey tenderness instrument. The basic pain threshold of normal mice was first determined, and then the mice were anesthetized with isoflurane. With the back facing up, the right hind paw of the mouse was fixed and disinfected with iodine solution. A 5 mm longitudinal incision was made with a No. 11 blade at 2 mm from the ankle to expose the plantaris, blood vessels and fascia, and the wound was sutured using a 4-0 surgical suture and a small suture needle, and the wound is coated with erythromycin ointment. The mechanical pain sensitivity value of the surgical foot of the mice was measured 6 h after the surgery, and then compound 9 was intrathecally or intraperitoneally given, and the mechanical pain threshold at different time points after administration were recorded.
The experimental data were expressed as mean±standard error (Means±S.E.M.), and the data for differences between groups treated with different drug concentrations were analyzed by one-way ANOVA (Bonferroni test in one-way ANOVA) for statistics and analysis, ***P<0.001 represents that there was a significant difference between the MPE value of the drug-treated group and that of the saline group.
First, the maximum analgesic effect (MPE) was calculated, MPF. […]

For data set [3], the system named is inflammatory pain in mice. The data set is described as follows: Inflammatory pain model (Carrageenan or CFA). The format is in vivo, mouse. As for the experimental part: Inflammatory pain in mice was measured using a hot stinging apparatus and an electronic Von Frey tenderness instrument, and the basal pain threshold of normal mice was firstly determined. Then 20 μl of 2% Carrageenan solution or CFA solution was injected subcutaneously into the mouse paw. The thermal and mechanical pain sensitivity value values of the injected paw in mice were tested after 24 hours (Carrageenan) or 4 days (CFA), and then compound 9 was administered into lateral ventricle, intrathecally or subcutaneously, and the pain threshold at different time points after administration were recorded.
The experimental data were expressed as mean±standard error (Means±S.E.M.), and the data for differences between groups treated with different drug concentrations were analyzed by one-way ANOVA (Bonferroni test in one-way ANOVA) for statistics and analysis, ***P<0.001 represents that there was a significant difference between the pain threshold value of the drug-treated group and that of the saline group.

The test system of data set [4] is blood pressure of Wistar male rats. The data set is described as follows: Blood pressure in anesthetized rats. The format is in vivo. The settings on record: rat, intrathecal; doses 1, 3, 10, 30 nmol. The text has this:
Wistar male rats weighing 200-250 g. After urethane (1.3 g/kg) anesthesia, the trachea was cut to prevent suffocation. The femoral was isolated and a PE-10 artery cannula was inserted in an insertion depth of approximately 2 cm. The arterial cannula was connected to a pressure transducer PT-100, and the PT-100 was connected to a biofunctional experiment BL-420F system to record mean arterial pressure and pulsatile arterial pressure. An additional PE-10 was inserted from the lumbar vertebra L4-L5 and inserted 3 cm along the subarachnoid space up to the spine T12-L1 for intrathecal administration. After the surgery, the rats were allowed to stabilize for 30 min. Then, intrathecal administration of physiological saline or different doses of the drug, the dose of the drug was from small to large, and each dose interval was more than 40 min. Changes in blood pressure of the rats after administration were recorded.
The experimental results of cardiovascular regulation in rats were expressed as changes in blood pressure, and the relevant data were expressed as mean±standard error (Means±S.E.M.), Differences between groups treated with different drug concentrations were analyzed by one-way ANOVA (Bonferroni test in one-way ANOVA) for data statistics and analysis.

Data set [5] relates to mice. The data set is described as follows: Conditional position preference test (CPP). The format is in vivo, mouse. The conditions noted are these: subcutaneous 10 mg/kg. As for the experimental part:
The conditional position preference experimental device is a closed device (45×20×20 cm) assembled from transparent plexiglass plates. Two 20×20×20 cm conditional preference boxes are located at both ends of the device, with a small compartment 5×20×20 cm having a passage (5×5×5 cm) connected in the middle. On the first day of the experiment, the passage was kept open, the mice was placed into the device for 15 min, and the mice that had been explored for more than 9 min in any of the preference boxes were excluded. […] On day 5, the passage was kept opened again to ensure that the mice were free to enter into the two preference boxes, and the time that the mice stayed in the drug matching preference box within 15 minutes of the total time was recorded.
The experimental relevant data were expressed as mean±standard error (Means±S.E.M.), and the conditional position preference score represents the time spent on the drug matching preference box on day 5 of each mouse minus the time on the first day in this preference box. Differences between groups treated with different drugs in CPP trials were analyzed by one-way ANOVA (Tukey HSD test in one-way ANOVA) for data statistics and analysis.

Data set [6] relates to mice. The data set is described as follows: Naloxone withdrawal test. Format: in vivo, mouse. The settings on record: s.c. at 8 hours intervals 20, 40, 60, 80, 100, 100, 100 mg/kg; naloxone 1 mg/kg; 30 minutes.
Setting [7] is: lateral ventricle (i.c.v.), listed as compound 9.
[8] abbreviates: lateral ventricle, from ED50 values.

“Also recorded” adds a separate entry of the source. Square brackets hold non-standard residues; d marks the D form. Peptide text beside a SMILES is read from it. NMeF = CN[C@@H](Cc1ccccc1)C(=O)O

Take `C[C@@H](NC(=O)[C@@H](N)Cc1ccc(O)cc1)C(=O)NCC(=O)N(C)[C@@H](Cc1ccccc1)C(=O)NCC(=O)N1CCC[C@H]1C(=O)N[C@@H](CCC(N)=O)C(=O)N[C@@H](CCCNC(=N)N)C(=O)N[C@@H](Cc1ccccc1)C(N)=O` [Compound 9, Tyr-D-Ala-Gly-NMe-Phe-Gly-Pro-Gln-Arg-Phe-NH2] (H-Y[dA]G[NMeF]GPQRF-NH2): the “ED50 value (95% confidence interval) first phase pain” value in data set [1] (intraperitoneal (i.p.)) is 8.855 (7.573 to 10.35) mg/kg; in data set [1] (intrathecal (i.t.)) it was 37.69 (35.53 to 39.99) pmol; in data set [1] (lateral ventricle (i.c.v.)), 18.8 pmol; in data set [1] (setting [7]), 18.80 (15.97 to 22.12) pmol. In addition, the “ED50 value (95% confidence interval) second phase pain” value in data set [1] (intraperitoneal (i.p.)) is reported as 10.92 (9.632 to 12.39) mg/kg; in data set [1] (intrathecal (i.t.)) it was 55.04 (51.26 to 59.10) pmol; in data set [1] (lateral ventricle (i.c.v.)), 103.4 pmol; in data set [1] (setting [7]), 103.4 (96.02 to 111.3) pmol. In addition, the “analgesic effect relative to BN-9, first phase pain” value in data set [1] (setting [8]) is 6.3 times. In data set [1] (setting [8]), the “analgesic effect relative to BN-9, second phase pain” value is recorded as 11.0 times. Further, the “ED50 value of analgesia for postoperative pain” value is listed as 26.15 (22.62-30.23) mg/kg in data set [2] (intraperitoneal) and 8.63 (6.70-11.11) pmol in data set [2] (intrathecal). Moreover, the “analgesic ED50 value, inflammatory pain” value is 2.98 (2.50-3.54) pmol in data set [3] (intrathecal (FIG. 15: carrageenan-induced)), 5.20 (2.06-13.10) pmol in data set [3] (lateral ventricle (FIG. 14: CFA-induced)) and 3.24 (2.81-3.74) mg/kg in data set [3] (subcutaneous (FIG. 16: carrageenan-induced)). Moreover, in data set [4], the “dose producing a significant blood pressure-lowering effect” value was “more than 1 nmol”. Besides, the “conditional positional preference” value with mice [5] was “produced significant conditional positional preference; also recorded: lower degree of preference than morphine”. The “average number of jumps after naloxone withdrawal” value with mice [6] worked out at 11.63.
